Experimental data taken from patent US20230136824A1, “N-N-[…] (DMT) AND DMT ANALOG COMPOSITIONS, METHODS OF MAKING, AND METHODS OF USE THEREOF” (ATAI Life Sciences AG, priority 2021, published 2023).
Values after ≈ are worked out from the molar mass of the structure shown.

Assays:
[1] = Physicochemical constants of DMT (log P, pKa, glass transition temperature); conditions: amorphous N,N-DMT
Description: DMT free base is a lipophilic molecule (log P−2.573) with a small backbone (Mol wt. 188.27 g/mol).
The pH of the film plays a very important role in balancing its ionized vs unionized form at the site. In the present invention microenvironmental pH is maintained to achieve balance between ionized and unionized form and thus the permeation across the mucosa.

[2] = Ex-vivo permeation through porcine buccal mucosa (Franz diffusion cell); format: in vitro ADME; conditions: 180 minutes, phosphate buffered solution 0.01M pH=7
Protocol: Further, permeability of DMT through prepared films were evaluated using ex-vivo permeation study i.e., using porcine buccal mucosa as presented below. Ex-vivo permeation is well studied using Franz diffusion cell or Using chambers utilizing animal mucosa (e.g., Pig or sheep buccal mucosa) or by using commercially available synthetic membranes (e.g., Permeapad®). The Franz diffusion cell consists of two compartments; one is the donor compartment, the other is the receptor compartment of 18 mL capacity and having 0.785 cm^2 effective diffusion area. The temperature is maintained at 37° C. by water jacket. […]
Further, all prepared films are evaluated for the permeability through pig buccal mucosa and compared against the permeability of API dispersion in PBS pH 7.0 as presented in FIG. 6. In one aspect, the present invention involves a DMT polymeric film that releases about 5% or less DMT in 60 minutes, about 15% DMT or less in 180 minutes when measured through pig mucosa in phosphate buffered solution 0.01M pH=7, as shown in FIG. 6.
Further, permeability of DMT through prepared films were evaluated using ex-vivo permeation study i.e., porcine buccal mucosa or Permeapad® as presented below.

[3] = DMT solubility in various solvents (super saturated mixture, HPLC); format: physicochemical
Description: Solubility studies of DMT have been carried out in various solvents by preparing super saturated mixture and analyzed using HPLC.
This warrants a strong need for improvement solubility of DMT API in the film formulation for better bioavailability.

[4] = Excipient compatibility of DMT binary mixtures at 50° C./75% RH (HPLC impurity levels); format: physicochemical
Protocol: Further, several excipients for formulating transmucosal films with desired properties have been analyzed for compatibility with DMT at 50° C./75% RH utilizing HPLC method to detect impurity levels.

[5] = Forced degradation study of DMT under stress conditions (HPLC); format: physicochemical; conditions: for % Assay: exposure overnight
Protocol: A forced degradation study of DMT was performed under different stress conditions and samples are analyzed using HPLC.
It is important to incorporate antioxidant(s) in the formulation to prevent oxidation of DMT during the shelf life and to form stable films.

[6] = Solubility of buccal film and neat API in Phosphate buffer saline pH 6.8; format: physicochemical
[7] = pH of the donor chamber media in permeation study; format: physicochemical; conditions: PBS pH 7.0

For `CN(C)CCc1c[nH]c2ccccc12` [DMT, N, N-Dimethyltryptamine], the Glass transition temperature [1] was −18 °C, the “DMT released through pig mucosa” value [2] was “about 33%” and the solubility ([3]; Saliva Buffer (pH 6.8)) was 2.3 mg/mL (≈ 12.2 mM). For the same molecule, the solubility ([3]; acetone) was > 126 mg/mL, the solubility ([3]; acetonitrile) was > 94 mg/mL and the solubility ([3]; ethanol) was > 98 mg/mL. The solubility ([3]; isopropyl alcohol water) was > 98 mg/mL, the solubility ([3]; methanol) was > 98 mg/mL and the solubility ([3]; methanol:water (50:50)) was 26 mg/mL (≈ 138 mM). For the same molecule, the solubility ([3]; methanol:water (70:30)) was > 50 mg/mL, the solubility ([3]; methyl isobutyl ketone) was > 90 mg/mL and the solubility ([3]; p-dioxane) was > 104 mg/mL. For the same molecule, the solubility ([3]; tetrahydrofuran) was > 106 mg/mL, the solubility ([3]; water) was < 1 mg/mL and the “No. of Impurities” value [4] was 6. The “Total Impurities %” value [4] was 2.17%, the “Oxidation upon force degradation study” value [5] was “highly prone to oxidation” and the “% Assay” value ([5]; 0.1N HCl) was 99.7%. The “% Assay” value ([5]; 0.1N NaOH) was 99.4%, the “% Assay” value ([5]; 3% peroxide) was 26.6% and the “% Assay” value ([5]; 70° C.) was 98.5%. For the same molecule, the solubility [6] was 2.3 mg/mL (≈ 12.2 mM) and the “pH of the donor chamber media” value [7] was 9.5.
